For 43 sequences, HR results are on record in patent US11725027B2, “Hypersensitive response elicitor-derived peptides and use thereof” (priority 2016, dated 2023).

The subject of this assay is Nicotiana tabacum cultivar xanthi plants. Nature of the assay: Hypersensitive Response (HR) induction in tobacco leaves. The format is in vivo. On the set-up: key to HR: Plants are considered HR-positive (“HR+”) if they exhibit wide-spread macroscopic cell death visible to the naked eye, accompanied by wilting and browning of the affected tissue within 48 hours; Plants are considered HR-negative (“HR−”) if they exhibit no discernible wilting or tissue death observable by naked eye. Particulars: tobacco leaf infused with 500, 250, 125, 62.5, 31.25 μg/ml peptide solutions, scored over 48 hours. The source says:
A property of a peptide to elicit a hypersensitive response, or not, upon infiltration or application of the peptide to plant tissues can be measured by applying the peptide in dry powder form or in solution form to a plant, particularly though not exclusively a plant leaf.
The minimal eliciting sequence derived from was developed based on the sequence of the hrex gene from Xanthomonas campestris pv. pelargonii. A number of truncated and mutated sequences were synthesized and tested for Hypersensitive Response induction (results in Table 4). HR in tobacco was tested as described in Wei, Science 257:85-88 (1992), which is hereby incorporated by reference in its entirety. Briefly, peptides were dissolved at a concentration of 500 μg/ml in aqueous solution. Four serial dilutions were performed with an equal volume of water, yielding peptide samples at 500, 250, 125, 62.5, 31.25 μg/ml peptide solutions. Nicotiana tabacum cultivar xanthi plants were used at 5-7 weeks old (preflowering). Leaves were lightly punctured with a toothpick in a middle leaf panel. Peptide solutions were then infused via needle-less syringe into the wound, filling the panel. Each peptide sample was infused into a leaf of 2 different plants. The leaves were observed and scored over the next 48 hours for withering and browning, lesions typical of programmed cell death. These studies had […] main goals: (1) determine the minimal sequence sufficient for HR elicitation (2) increase the solution stability of the peptides; (3) make disruptive mutations to verify the residues which are most important for HR elicitation; (4) make conservative mutations to identify the degree of specificity for particular amino acids.
Take “ITPDGQGGGQIGDNPQLDLLLMFIMMMLQQ [Peptide P5-79]”: the HR entry was “Strong+”.
The same measure for “NFGTPDSTVQNPQDASKPNQLDLLLAFIAAALQQ [Peptide P5-78]”: “Weak+”; for SEEQLDLLLAFIAAALQQEE [Peptide P5-87]: “-”.
Consider SEEELDLLLMFIMMMLEE [Peptide P5-29], for which the HR result is recorded as “+”.
The same measure for SEEQLDLLLEFIEEELQQEE [Peptide P5-48]: “-”; for SAGSEQQLDLELMFIMMMLQQ [Peptide P5-37]: “-”; for SELELLLAFIAAALEEEEE [Peptide P5-19]: “+”.
The same measure for SAGSEQQLDQELLMFIMMMLQQ [Peptide P5-54]: “-”; for SEEELDQLLLMFIMMMLEE [Peptide P5-30]: “+”.
Consider AEQGSSQLDLLLMFIMMMLQQ [Peptide P5-74], for which the HR entry is recorded as “+”.
Turning to SEEQLELLLAFIAAALQEE [Peptide P5-88], the HR entry is “+”.
Take SAGSEQQEDELLMFIMMMLQQ [Peptide P5-52]: the HR result was “-”.
For SAGSEQQLDLLLAFIEAALQQ [Peptide P5-67] the value was “-”; for SEEEEELDLLLAFIAAALA [Peptide P5-17], “-”.
For “ITPDGQGGGQIGDNPQLDLLLAFIAAALQQ [Peptide P5-80]”, the HR entry is reported as “Weak+”.
The same measure for SEEEQLDQLLLMFIMMMLEE [Peptide P5-32]: “+”; for SAGSEQQLDLLLMEIMMMLQQ [Peptide P5-40]: “Strong+”; for SAGSEQQEDLLLAFIALQQ [Peptide P5-61]: “-”.
For SEEEEELDQLLLAFIAAALQQ [Peptide P5-23], the HR result was “Weak+”.
On to SEEELDLLLAFIAAALDD [Peptide P5-13], for which the HR entry was “-”.
As to SAGSEQQLDLLLEFIMMMLQQ [Peptide P5-39], the HR entry is “Strong+”.
For SAGSEQQLDLLEMFIMMMLQQ [Peptide P5-38] the value was “-”; for SAGSEQQEDLLLAFIAAALQQ [Peptide P5-49], “-”.
The same measure for SEEEQLDLLLMFIMMMLEE [Peptide P5-31]: “+”.
Regarding SEEELDLLLAFIEEELEE [Peptide P5-12], the HR result was “-”.
With SQAGSEQLDLLLMFIMMMLQQ [Peptide P5-73], the HR entry is recorded as “+”.
Regarding SEEQLDQLLLAFIAAALEE [Peptide P5-28], the HR result is listed as “Weak+”.
The same measure for SAGSEQQLDLLLAEIALQQ [Peptide P5-64]: “-”; for SEEEEELDQLLLAFIAAAL [Peptide P5-24]: “-”; for SAGSEQQLDLLLMFIEMMLQQ [Peptide P5-42]: “Weak+”.
On to SAGSEQQLDLLLEFIAAALQQ [Peptide P5-70], for which the HR result is recorded as “-”.
On to SEEEEELDLLLAFIAAALE [Peptide P5-18], for which the HR entry was “-”.
The same measure for SEEQLEELLAFIAAALQQEE [Peptide P5-57]: “+”.
The same measure for SEEQLDLLLAFIAAALQEE [Peptide P5-26]: “+”; for SAGSEQQEDQLLLMFIMMMLQQ [Peptide P5-53]: “-”.
For “NFGTPDSTVQNPQDASKPNQLDLLLMFIMMMLQQ [Peptide P5-77]” the value was “Weak+”; for SAGSEQQLDQLLLMFIMMMLQQ [Peptide P5a], “+”.
SAGSEQQLDLLLMFEMMMLQQ [Peptide P5-41]: the HR entry is on record as “-”.
The same measure for SEEQEEELLAFIAAALQQEE [Peptide P5-58]: “-”; for SELELLLEFIEEELEE [Peptide P5-20]: “-”.
The same measure for LDLLLAFIEEELEEEE [Peptide P5-10]: “-”; for SAGSEQQEDELLAFIAAALQQ [Peptide P5-51]: “-”; for SEEEQLDQLLLMFIMMMLQEE [Peptide P5-34]: “+”.
